# Assay results: US11932624B2, “MDM2 degraders and uses thereof” (Kymera Therapeutics, Inc., priority 2020, dated 2024)
# pIC50: −log10 of the molar value.
# System: RS411 cells
# Assay: Cell Viability CTG Assay (CellTiter Glo) in RS411 cells
# Format: cell-based
# Settings: Homo sapiens, RS4-11, 24 h, duration 1 day
# How it was run: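 RS411 cells at 1000 cells/well were exposed to compound (top final 10 μM, 3-fold, 11 doses; 0.2% DMSO) at 37 °C, 5% CO2 for 1-4 days. Viability was read by CellTiter Glo luminescence after 10 min at RT. IC50 is reported as letter-code bins.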
row,SMILES,pIC50
1,Cn1c(=O)n(C2CCC(=O)NC2=O)c2ccc(CCC3CCN(C(=O)c4coc([C@@H]5NC6(CCCCC6)[C@@]6(C(=O)Nc7cc(Cl)ccc76)[C@H]5c5cccc(Cl)c5F)n4)CC3)cc21 (stereo partly drawn) [I-165],< 6.00
2,CC(C)[C@@H](CS(=O)(=O)C(C)C)N1C(=O)[C@@](C)(CC(=O)N[C@H]2CC[C@H](CN3CCC(C#Cc4ccn5c(N6CCC(=O)NC6=O)cnc5c4)CC3)CC2)C[C@H](c2cccc(Cl)c2)[C@H]1c1ccc(Cl)cc1 [I-166],6.00 to 6.30
3,CC(C)(C)C[C@@H]1N[C@@H](C(=O)N[C@H]2CC[C@H](CN3CCC(C#Cc4cccn5c(N6CCC(=O)NC6=O)cnc45)CC3)CC2)[C@H](c2cccc(Cl)c2F)[C@@]1(C#N)c1ccc(Cl)cc1F [I-167],< 6.00
4,Cn1c(=O)n(C2CCC(=O)NC2=O)c2ccc(C#CCCN3CCC(NC(=O)[C@@H]4NC5(CCCCC5)[C@@]5(C(=O)Nc6cc(Cl)ccc65)[C@H]4c4cccc(Cl)c4F)CC3)cc21 (stereo partly drawn) [I-169],< 6.00
5,CC(C)[C@@H](CS(=O)(=O)C(C)C)N1C(=O)[C@@](C)(CC(=O)N[C@H]2CC[C@H](CN3CCC(C#Cc4cccn5c(N6CCC(=O)NC6=O)cnc45)CC3)CC2)C[C@H](c2cccc(Cl)c2)[C@H]1c1ccc(Cl)cc1 [I-170],6.30 to 7.00
6,Cn1c(=O)n(C2CCC(=O)NC2=O)c2ccc(CCCCCOC3CCN(C(=O)c4coc([C@@H]5NC6(CCCCC6)[C@@]6(C(=O)Nc7cc(Cl)ccc76)[C@H]5c5cccc(Cl)c5F)n4)CC3)cc21 (stereo partly drawn) [I-172],< 6.00
7,COc1cc2c(cc1OC(C)C)C(c1ccc(Cl)cc1)N(c1ccc(N(C)C[C@H]3CC[C@H](N(C)CCOCCOCC(=O)N[C@H](C(=O)N4C[C@H](O)C[C@H]4C(=O)NCc4ccc(-c5scnc5C)cc4)C(C)(C)C)CC3)cc1)C(=O)C2 (stereo partly drawn) [I-175],< 6.00
8,COc1cc2c(cc1OC(C)C)[C@H](c1ccc(Cl)cc1)N(c1ccc(N(C)CC3CCN(C(=O)Cc4ccc5c(c4)n(C)c(=O)n5C4CCC(=O)NC4=O)CC3)cc1)C(=O)C2 (stereo partly drawn) [I-181],< 6.00
9,O=C1CCN(c2cnc3cc(NCCCCCNC[C@H]4CC[C@H](NC(=O)[C@@H]5NC6(CCCCC6)[C@@]6(C(=O)Nc7cc(Cl)ccc76)[C@H]5c5cccc(Cl)c5F)CC4)ccn23)C(=O)N1 [I-184],7.00 to 7.30
10,Cc1ncsc1-c1ccc(CNC(=O)[C@@H]2C[C@@H](O)CN2C(=O)[C@@H](NC(=O)COCCOCC2CCN(C[C@H]3CC[C@H](NC(=O)[C@@H]4NC5(CCCCC5)[C@@]5(C(=O)Nc6cc(Cl)ccc65)[C@H]4c4cccc(Cl)c4F)CC3)CC2)C(C)(C)C)cc1 [I-188],< 6.00
11,COc1cc2c(cc1OC(C)C)C(c1ccc(Cl)cc1)N(c1ccc(N(C)C[C@H]3CC[C@H](N(C)CCc4ccc5c(c4)n(C)c(=O)n5C4CCC(=O)NC4=O)CC3)cc1)C(=O)C2 (stereo partly drawn) [I-195],< 6.00
12,COc1cc2c(cc1OC(C)C)[C@@H](c1ccc(Cl)cc1)N(c1ccc(N(C)CC3CCN(CCCCCCc4ccc5c(c4)n(C)c(=O)n5C4CCC(=O)NC4=O)CC3)cc1)C(=O)C2 (stereo partly drawn) [I-197],< 6.00
13,CC(C)(C)C[C@@H]1N[C@@H](C(=O)N[C@H]2CC[C@H](CNCCCC#Cc3ccc4c(N5CCC(=O)NC5=O)cncc4c3)CC2)[C@H](c2cccc(Cl)c2F)[C@@]1(C#N)c1ccc(Cl)cc1F [I-199],< 6.00
14,CC(C)(C)C[C@@H]1N[C@@H](C(=O)N[C@H]2CC[C@H](CNCCCC#Cc3cccn4c(N5CCC(=O)NC5=O)cnc34)CC2)[C@H](c2cccc(Cl)c2F)[C@@]1(C#N)c1ccc(Cl)cc1F [I-202],< 6.00
15,CC1(C)CCC2(CC1)NC(C(=O)N[C@H]1CC[C@H](CN3CCN(CCC#Cc4cccn5c(N6CCC(=O)NC6=O)cnc45)CC3)CC1)[C@H](c1ccnc(Cl)c1F)[C@]21C(=O)Nc2cc(Cl)ccc21 (stereo partly drawn) [I-203],> 7.30
16,Cn1c(=O)n(C2CCC(=O)NC2=O)c2ccc(N3CCN(C[C@H]4CC[C@H](NC(=O)[C@@H]5NC6(CCC(C)(C)CC6)[C@@]6(C(=O)Nc7cc(Cl)ccc76)[C@H]5c5ccnc(Cl)c5F)CC4)CC3)cc21 (stereo partly drawn) [I-204],> 7.30
17,Cn1c(=O)n(C2CCC(=O)NC2=O)c2ccc(CN3CCN(C[C@H]4CC[C@H](NC(=O)[C@@H]5NC6(CCC(C)(C)CC6)[C@@]6(C(=O)Nc7cc(Cl)ccc76)[C@H]5c5ccnc(Cl)c5F)CC4)CC3)cc21 (stereo partly drawn) [I-205],> 7.30
18,COc1cc2c(cc1OC(C)C)C(c1ccc(Cl)cc1)N(c1ccc(N(C)C[C@H]3CC[C@H](N(C)CCCC#Cc4c(OC)ccc5c4n(C)c(=O)n5C4CCC(=O)NC4=O)CC3)cc1)C(=O)C2 (stereo partly drawn) [I-206],> 7.30
19,Cn1c(=O)n(C2CCC(=O)NC2=O)c2ccc(N3CCN(C[C@H]4CC[C@H](NC(=O)[C@@H]5NC6(CCCCC6)[C@@]6(C(=O)Nc7cc(Cl)ccc76)[C@H]5c5cccc(Cl)c5F)CC4)CC3)cc21 (stereo partly drawn) [I-207],> 7.30
20,COc1cc2c(cc1OC(C)C)C(c1ccc(Cl)cc1)N(c1ccc(N(C)CCCCCCCc3ccc4c(c3)n(C)c(=O)n4C3CCC(=O)NC3=O)cc1)C(=O)C2 (stereo not drawn) [I-208],< 6.00

# Results, then the compound that gave them:
row,pIC50,SMILES
1,> 7.30,Cn1c(=O)n(C2CCC(=O)NC2=O)c2ccc(CCCCCNC(=O)c3ccc(NC(=O)[C@@H]4NC5(CCCCC5)[C@@]5(C(=O)Nc6cc(Cl)ccc65)[C@H]4c4cccc(Cl)c4F)c4c3OCCO4)cc21 (stereo partly drawn) [I-163]
2,> 7.30,CC1(C)CCC2(CC1)N[C@@H](C(=O)N[C@H]1CC[C@H](CN3CCC(C#Cc4ccn5c(N6CCC(=O)NC6=O)cnc5c4)CC3)CC1)[C@H](c1ccnc(Cl)c1F)[C@]21C(=O)Nc2cc(Cl)ccc21 [I-164]
3,> 7.30,COc1cc2c(cc1OC(C)C)C(c1ccc(Cl)cc1)N(c1ccc(N(C)C[C@H]3CC[C@H](N(C)C(=O)CCCCc4ccc5c(c4)n(C)c(=O)n5C4CCC(=O)NC4=O)CC3)cc1)C(=O)C2 (stereo partly drawn) [I-168]
4,> 7.30,Cn1c(=O)n(C2CCC(=O)NC2=O)c2ccc(CC[C@H]3CC[C@H](N4CCC(NC(=O)[C@@H]5NC6(CCCCC6)[C@@]6(C(=O)Nc7cc(Cl)ccc76)[C@H]5c5cccc(Cl)c5F)CC4)CC3)cc21 (stereo partly drawn) [I-171]
5,> 7.30,Cn1c(=O)n(C2CCC(=O)NC2=O)c2ccc(C3CCN(C(=O)[C@H]4CC[C@H](NC(=O)[C@@H]5NC6(CCCCC6)[C@@]6(C(=O)Nc7cc(Cl)ccc76)[C@H]5c5cccc(Cl)c5F)CC4)CC3)cc21 (stereo partly drawn) [I-174]
6,> 7.30,Cn1c(=O)n(C2CCC(=O)NC2=O)c2ccc(C3CCN(C(=O)c4ccc(NC(=O)[C@@H]5NC6(CCCCC6)[C@@]6(C(=O)Nc7cc(Cl)ccc76)[C@H]5c5cccc(Cl)c5F)cc4)CC3)cc21 (stereo partly drawn) [I-176]
7,> 7.30,Cn1c(=O)n(C2CCC(=O)NC2=O)c2ccc(C3CCN(C(=O)[C@H]4CC[C@H](NC(=O)[C@@H]5NC6(CCC(C)(C)CC6)[C@@]6(C(=O)Nc7cc(Cl)ccc76)[C@H]5c5ccnc(Cl)c5F)CC4)CC3)cc21 (stereo partly drawn) [I-177]
8,> 7.30,Cn1c(=O)n(C2CCC(=O)NC2=O)c2ccc(N3CCN(C(=O)[C@H]4CC[C@H](NC(=O)[C@@H]5NC6(CCCCC6)[C@@]6(C(=O)Nc7cc(Cl)ccc76)[C@H]5c5cccc(Cl)c5F)CC4)CC3)cc21 (stereo partly drawn) [I-178]
9,> 7.30,COc1cc2c(cc1OC(C)C)[C@H](c1ccc(Cl)cc1)N(c1ccc(N(C)CC3CCN(C(=O)CCCCCc4ccc5c(c4)n(C)c(=O)n5C4CCC(=O)NC4=O)CC3)cc1)C(=O)C2 (stereo partly drawn) [I-179]
10,> 7.30,Cn1c(=O)n(C2CCC(=O)NC2=O)c2ccc(CCN3CCN(C(=O)[C@H]4CC[C@H](NC(=O)[C@@H]5NC6(CCCCC6)[C@@]6(C(=O)Nc7cc(Cl)ccc76)[C@H]5c5cccc(Cl)c5F)CC4)CC3)cc21 (stereo partly drawn) [I-180]
11,> 7.30,COc1cc2c(cc1OC(C)C)[C@H](c1ccc(Cl)cc1)N(c1ccc(N(C)CC3CCN(C(=O)CCCc4ccc5c(c4)n(C)c(=O)n5C4CCC(=O)NC4=O)CC3)cc1)C(=O)C2 (stereo partly drawn) [I-182]
12,> 7.30,Cn1c(=O)n(C2CCC(=O)NC2=O)c2ccc(CN3CCN(C(=O)[C@H]4CC[C@H](NC(=O)C5NC6(CCCCC6)[C@@]6(C(=O)Nc7cc(Cl)ccc76)[C@H]5c5cccc(Cl)c5F)CC4)CC3)cc21 (stereo partly drawn) [I-183]
13,> 7.30,Cc1ccc2c(c1C1CCN(C[C@H]3CC[C@H](NC(=O)[C@@H]4NC5(CCCCC5)[C@@]5(C(=O)Nc6cc(Cl)ccc65)[C@H]4c4cccc(Cl)c4F)CC3)CC1)n(C)c(=O)n2C1CCC(=O)NC1=O (stereo partly drawn) [I-185]
14,> 7.30,Cn1c(=O)n(C2CCC(=O)NC2=O)c2ccc(C3CCN(C[C@H]4CC[C@H](NC(=O)[C@@H]5NC6(CCCCC6)[C@@]6(C(=O)Nc7cc(Cl)ccc76)[C@H]5c5cccc(Cl)c5F)CC4)CC3)cc21 (stereo partly drawn) [I-186]
15,> 7.30,COc1ccc2c(c1C1CCN(C[C@H]3CC[C@H](NC(=O)[C@@H]4NC5(CCCCC5)[C@@]5(C(=O)Nc6cc(Cl)ccc65)[C@H]4c4cccc(Cl)c4F)CC3)CC1)n(C)c(=O)n2C1CCC(=O)NC1=O (stereo partly drawn) [I-187]
16,> 7.30,Cn1c(=O)n(C2CCC(=O)NC2=O)c2ccc(CCCCCN3CCc4cc(NC(=O)[C@@H]5NC6(CCCCC6)[C@@]6(C(=O)Nc7cc(Cl)ccc76)[C@H]5c5cccc(Cl)c5F)ccc4C3)cc21 (stereo partly drawn) [I-189]
17,> 7.30,COc1cc2c(cc1OC(C)C)C(c1ccc(Cl)cc1)N(c1ccc(N(C)C[C@H]3CC[C@H](N4CCN(CCCCCc5cccc6c5n(C)c(=O)n6C5CCC(=O)NC5=O)C(=O)C4)CC3)cc1)C(=O)C2 (stereo partly drawn) [I-192]
18,> 7.30,COc1cc2c(cc1OC(C)C)C(c1ccc(Cl)cc1)N(c1ccc(N(C)C[C@H]3CC[C@H](N4CCN(CCCCCc5ccc6c(c5)n(C)c(=O)n6C5CCC(=O)NC5=O)C(=O)C4)CC3)cc1)C(=O)C2 (stereo partly drawn) [I-193]
19,> 7.30,COc1cc2c(cc1OC(C)C)C(c1ccc(Cl)cc1)N(c1ccc(N(C)C[C@H]3CC[C@H](N4CCC(CCc5ccc6c(c5)n(C)c(=O)n6C5CCC(=O)NC5=O)CC4)CC3)cc1)C(=O)C2 (stereo partly drawn) [I-194]
20,> 7.30,Cn1c(=O)n(C2CCC(=O)NC2=O)c2ccc(CCN3CCN(C[C@H]4CC[C@H](NC(=O)[C@@H]5NC6(CCC(C)(C)CC6)[C@@]6(C(=O)Nc7cc(Cl)ccc76)[C@H]5c5ccnc(Cl)c5F)CC4)CC3)cc21 (stereo partly drawn) [I-196]
21,> 7.30,Cn1c(=O)n(C2CCC(=O)NC2=O)c2ccc(C#CCCN3CCN(C[C@H]4CC[C@H](NC(=O)[C@@H]5NC6(CCC(C)(C)CC6)[C@@]6(C(=O)Nc7cc(Cl)ccc76)[C@H]5c5ccnc(Cl)c5F)CC4)CC3)cc21 (stereo partly drawn) [I-198]
22,> 7.30,COc1cc2c(cc1OC(C)C)[C@H](c1ccc(Cl)cc1)N(c1ccc(N(C)CC3CCN(CCCCCCc4ccc5c(c4)n(C)c(=O)n5C4CCC(=O)NC4=O)CC3)cc1)C(=O)C2 (stereo partly drawn) [I-201]
